In patent US5571799A, “(2'-5') oligoadenylate analogues useful as inhibitors of host-v5.-graft response” (Basco, Ltd., priority 1994, dated 1996):

Test system: β-lymphocytes (murine splenocytes) stimulated with lipopolysaccharide
Test: In vitro blast-transformation of murine lymphocytes, LPS (β-lymphocyte mitogen), [3H]-thymidine
Type: cell-based, mouse (CBA)
Settings: for DNA synthesis at [^3 H]-thymidine [incorporated counts/min.]: LPS 0.1 μg/ml
Description: The immune reactions in an organism begins with the division of lymphocytes. In vitro investigation of the lymphocyte blast-transformationreaction under the influence of mitogens makes it possible to use this model system to select chemically synthesized 2'-5'A3 analogues which suppress division of lymphocytes. Using Concanavalin A and lipopolysaccharide as mitogens, the effect of analogues on the division of T- and β-lymphocytes may be investigated.
CBA mice 8-10 weeks old were used for these experiments. A suspension of mouse splenocytes were obtained by gently teasing spleens with forceps. Lymphocytes cultivated in flat-bottomed 96-well plates (Linbro) in RPMI-1640 medium (Flow Lab.) were supplemented with 2 mM 1-glutamine, 10 μg/ml gentamicin, 10^-5 M 2-mercaptoethanol and 10% heat inactivated fetal calf serum (Flow Lab). Cultures were maintained in 5% CO2 at 37° C. One μCi of ^3 H-thymidine (Isotop®) was added to each well 4 hours before the end of the incubation period. Incorporation of ^3 H-thymidine into cellular DNA was determined by liquid scintillation counting using standard techniques. Oligoadenylate was added to the medium at the beginning of culturing to achieve the final concentration.
(Con A being a mitogen for T-lymphocytes and LPS being a mitogen for β-lymphocytes).

With “Adenylyl (2'-5')adenylyl (2'-5')-9-(2,3-anhydro-β-D-ribofuranosyl) adenine disodium salt [(2'-5')A2 Ar-epoxy]” as the substance, how does the “DNA synthesis at [^3 H]-thymidine [incorporated counts/min.]” value (“DNA synthesis … [incorporated counts/min.]” below) (5 × 10^-6 M, control 27,133) read?
Its value is 21,464 counts/min.

And the “inhibition of lymphocyte blast-transformation, in words” value (LPS, β-lymphocytes)?
Its value is “weaker effect of the division of β-lymphocytes”.

What about the “DNA synthesis … [incorporated counts/min.]” value (Table 4, 5 × 10^-6 M, control 10,766) of the same substance?
Its value is 7,665 counts/min.

And the “DNA synthesis … [incorporated counts/min.]” value (Table 4, 5 × 10^-7 M, control 10,766)?
Its value is 6,018 counts/min.

And the “DNA synthesis … [incorporated counts/min.]” value (Table 4, 5 × 10^-8 M, control 10,766)?
The value was 4,767 counts/min.

And the “DNA synthesis … [incorporated counts/min.]” value (Table 4, 5 × 10^-9 M, control 10,766)?
The value was 7,348 counts/min.

What about the “DNA synthesis … [incorporated counts/min.]” value (Table 4, 5 × 10^-10 M, control 10,766) of the same substance?
The value was 672 counts/min.

What about the “DNA synthesis … [incorporated counts/min.]” value (Table 5, 5 × 10^-6 M, control 5,513) of the same substance?
Its value is 131 counts/min.

And the “DNA synthesis … [incorporated counts/min.]” value (Table 5, 5 × 10^-7 M, control 5,513)?
Its value is 292 counts/min.

What about the “DNA synthesis … [incorporated counts/min.]” value (Table 5, 5 × 10^-8 M, control 5,513) of the same substance?
The value was 655 counts/min.

And the “DNA synthesis … [incorporated counts/min.]” value (Table 5, 5 × 10^-9 M, control 5,513)?
Its value is 3,342 counts/min.

What about the “DNA synthesis … [incorporated counts/min.]” value (Table 5, 5 × 10^-10 M, control 5,513) of the same substance?
The value was 1,213 counts/min.
